Assay results published in PubChem BioAssay AID1259407 (Chemical Carcinogenesis Research Information System (CCRIS), 2018).
The source made the active and inactive calls. How the calls were made is not given here.

System: CCRIS mutagenicity, Ames/micronucleus/aberration tests
Assay: CCRIS mutagenicity studies
[1] = Test System: AMES SALMONELLA TYPHIMURIUM, Strain/Indicator: TA98, Metabolic Activation: NONE, Method: PREINCUBATION
[2] = Test System: AMES SALMONELLA TYPHIMURIUM, Strain/Indicator: TA98, Metabolic Activation: NONE, Method: STANDARD PLATE
[3] = Test System: AMES SALMONELLA TYPHIMURIUM, Strain/Indicator: TA100, Metabolic Activation: NONE, Method: PREINCUBATION

Measured: mutagenic call

CNc1ccc(N(CCO)CCO)cc1[N+](=O)[O-]
active: End Point: IN VITRO CHROMOSOMAL ABERRATIONS, Test System: CHO-LB CELLS, Metabolic Activation: RAT, LIVER, S-9, AROCLOR 1254 active; positive | Test System: AMES SALMONELLA TYPHIMURIUM, Strain/Indicator: TA97, Metabolic Activation: HAMSTER, LIVER, S-9, AROCLOR 1254 (10%), Method: PREINCUBATION active; positive | Test System: AMES SALMONELLA TYPHIMURIUM, Strain/Indicator: TA97, Metabolic Activation: HAMSTER, LIVER, S-9, AROCLOR 1254, Method: PREINCUBATION active; positive | Test System: AMES SALMONELLA TYPHIMURIUM, Strain/Indicator: TA97, Metabolic Activation: NONE, Method: PREINCUBATION active; positive | Test System: AMES SALMONELLA TYPHIMURIUM, Strain/Indicator: TA97, Metabolic Activation: RAT, LIVER, S-9, AROCLOR 1254 (10%), Method: PREINCUBATION active; positive | Test System: AMES SALMONELLA TYPHIMURIUM, Strain/Indicator: TA97, Metabolic Activation: RAT, LIVER, S-9, AROCLOR 1254, Method: PREINCUBATION active; positive | Test System: AMES SALMONELLA TYPHIMURIUM, Strain/Indicator: TA98, Metabolic Activation: HAMSTER, LIVER, S-9, AROCLOR 1254 (10%), Method: PREINCUBATION active; positive | Test System: AMES SALMONELLA TYPHIMURIUM, Strain/Indicator: TA98, Metabolic Activation: HAMSTER, LIVER, S-9, AROCLOR 1254, Method: PREINCUBATION active; positive | [1] active; positive | Test System: AMES SALMONELLA TYPHIMURIUM, Strain/Indicator: TA98, Metabolic Activation: RAT, LIVER, S-9, AROCLOR 1254 (10%), Method: PREINCUBATION active; positive | Test System: AMES SALMONELLA TYPHIMURIUM, Strain/Indicator: TA98, Metabolic Activation: RAT, LIVER, S-9, AROCLOR 1254, Method: PREINCUBATION active; positive | Test System: AMES SALMONELLA TYPHIMURIUM, Strain/Indicator: TA100, Metabolic Activation: HAMSTER, LIVER, S-9, AROCLOR 1254 (10%), Method: PREINCUBATION active; positive | Test System: AMES SALMONELLA TYPHIMURIUM, Strain/Indicator: TA100, Metabolic Activation: HAMSTER, LIVER, S-9, AROCLOR 1254, Method: PREINCUBATION active; positive | [3] active; positive | Test System: AMES SALMONELLA TYPHIMURIUM, Strain/Indicator: TA100, Metabolic Activation: RAT, LIVER, S-9, AROCLOR 1254 (10%), Method: PREINCUBATION active; positive | Test System: AMES SALMONELLA TYPHIMURIUM, Strain/Indicator: TA100, Metabolic Activation: RAT, LIVER, S-9, AROCLOR 1254, Method: PREINCUBATION active; positive | Test System: UDS MONKEY PRIMARY HEPATOCYTES, Strain/Indicator: THY INCORP (NON-S-PHASE), Metabolic Activation: NONE, Method: AUTORADIOGRAPHY active; positive | Test System: UDS RODENT PRIMARY HEPATOCYTES, Strain/Indicator: THY INCORP (NON-S-PHASE), Metabolic Activation: NONE, Method: AUTORADIOGRAPHY active; positive
inactive: End Point: IN VITRO CHROMOSOMAL ABERRATIONS, Test System: CHO-LB CELLS, Metabolic Activation: NONE inactive; negative | [2] inactive; negative | Test System: AMES SALMONELLA TYPHIMURIUM, Strain/Indicator: TA98, Metabolic Activation: RAT, LIVER, S-9, AROCLOR 1254, Method: STANDARD PLATE inactive; negative | Test System: AMES SALMONELLA TYPHIMURIUM, Strain/Indicator: TA100, Metabolic Activation: NONE, Method: STANDARD PLATE inactive; negative | Test System: AMES SALMONELLA TYPHIMURIUM, Strain/Indicator: TA100, Metabolic Activation: RAT, LIVER, S-9, AROCLOR 1254, Method: STANDARD PLATE inactive; negative | Test System: AMES SALMONELLA TYPHIMURIUM, Strain/Indicator: TA1535, Metabolic Activation: HAMSTER, LIVER, S-9, AROCLOR 1254 (10%), Method: PREINCUBATION inactive; negative | Test System: AMES SALMONELLA TYPHIMURIUM, Strain/Indicator: TA1535, Metabolic Activation: HAMSTER, LIVER, S-9, AROCLOR 1254, Method: PREINCUBATION inactive; negative | Test System: AMES SALMONELLA TYPHIMURIUM, Strain/Indicator: TA1535, Metabolic Activation: NONE, Method: PREINCUBATION inactive; negative | Test System: AMES SALMONELLA TYPHIMURIUM, Strain/Indicator: TA1535, Metabolic Activation: NONE, Method: STANDARD PLATE inactive; negative | Test System: AMES SALMONELLA TYPHIMURIUM, Strain/Indicator: TA1535, Metabolic Activation: RAT, LIVER, S-9, AROCLOR 1254 (10%), Method: PREINCUBATION inactive; negative | Test System: AMES SALMONELLA TYPHIMURIUM, Strain/Indicator: TA1535, Metabolic Activation: RAT, LIVER, S-9, AROCLOR 1254, Method: PREINCUBATION inactive; negative | Test System: AMES SALMONELLA TYPHIMURIUM, Strain/Indicator: TA1535, Metabolic Activation: RAT, LIVER, S-9, AROCLOR 1254, Method: STANDARD PLATE inactive; negative | Test System: AMES SALMONELLA TYPHIMURIUM, Strain/Indicator: TA1537, Metabolic Activation: NONE, Method: STANDARD PLATE inactive; negative | Test System: AMES SALMONELLA TYPHIMURIUM, Strain/Indicator: TA1537, Metabolic Activation: RAT, LIVER, S-9, AROCLOR 1254, Method: STANDARD PLATE inactive; negative | Test System: E. COLI, Strain/Indicator: WP2 UVRA, Metabolic Activation: NONE, Method: STANDARD PLATE inactive; negative | Test System: E. COLI, Strain/Indicator: WP2 UVRA, Metabolic Activation: RAT, LIVER, S-9, AROCLOR 1254, Method: STANDARD PLATE inactive; negative | Test System: MOUSE LYMPHOMA, Strain/Indicator: L5178Y (TK+/TK-), Metabolic Activation: RAT, LIVER, S-9, AROCLOR 1254, Method: SUSPENSION/PLATE inactive; negative

Cc1cnc2ccccc2c1
active: Test System: AMES SALMONELLA TYPHIMURIUM, Strain/Indicator: TA100, Metabolic Activation: RAT, LIVER, S-9, PHENOBARBITAL AND 5,6-BENZOFLAVONE, Method: PREINCUBATION active; positive | Test System: AMES SALMONELLA TYPHIMURIUM, Strain/Indicator: TA100, Metabolic Activation: RAT, LIVER, S-9, PHENOBARBITAL AND 5,6-NAPHTHOFLAVONE, Method: PREINCUBATION active; positive
inactive: [1] inactive; negative | Test System: AMES SALMONELLA TYPHIMURIUM, Strain/Indicator: TA98, Metabolic Activation: RAT, LIVER, S-9, Method: PREINCUBATION inactive; negative | [3] inactive; negative

O=[N+]([O-])c1cc([N+](=O)[O-])c2cccc3c2c1-c1ccccc1-3
active: Test System: AMES SALMONELLA TYPHIMURIUM, Strain/Indicator: TA98(1,8-DNP6), Metabolic Activation: NONE, Method: STANDARD PLATE active; positive | Test System: AMES SALMONELLA TYPHIMURIUM, Strain/Indicator: TA98(NR), Metabolic Activation: NONE, Method: STANDARD PLATE active; positive | [2] active; positive

CCOC(=O)CCBr
active: End Point: IN VITRO CHROMOSOMAL ABERRATIONS, Test System: CHL CELLS, Metabolic Activation: NONE active; positive (structural changes) | End Point: IN VITRO CHROMOSOMAL ABERRATIONS, Test System: CHL CELLS, Metabolic Activation: RAT, LIVER, S-9, SODIUM PHENOBARBITAL AND 5,6-BENZOFLAVONE active; positive (structural changes)

C[N+](C)=c1ccc2nc3ccc(N)cc3sc-2c1
active: Test System: Ames Salmonella typhimurium, Strain/Indicator: TA98, Metabolic Activation: Rat, Liver, S-9, Aroclor 1254 (10%), Method: Preincubation active; positive | Test System: Ames Salmonella typhimurium, Strain/Indicator: TA98, Strain/Sex: TA98, Metabolic Activation: None, Method: Preincubation active; positive | Test System: Ames Salmonella typhimurium, Strain/Indicator: TA100, Metabolic Activation: None, Method: Preincubation active; positive | Test System: Ames Salmonella typhimurium, Strain/Indicator: TA100, Metabolic Activation: Rat, Liver, S-9, Aroclor 1254 (10%), Method: Preincubation active; positive | Test System: E. coli, Strain/Indicator: WPM uvrA/pKM101, Metabolic Activation: None, Method: Preincubation active; positive | Test System: E. coli, Strain/Indicator: WPM uvrA/pKM101, Metabolic Activation: Rat, Liver, S-9, Aroclor 1254 (10%), Method: Preincubation active; positive
